Reference: patent US10568975B2, “Nanoparticles for magnetic resonance imaging tracking and methods of making and using thereof” (The Johns Hopkins University, priority 2013, dated 2020)

Test: CEST contrast of surface-conjugated polymeric nanoparticles and DYD peptide
Assay type: physicochemical
Experimental: Polymeric particle preparation: The peptide contrast agent, propargylglycine-W-(DYD)6-NH2, was synthesized on a microwave-assisted peptide synthesizer Libertyl (CEM, USA). The CEST nanoparticles were then prepared by standard coupling chemistry. NH2PEG-N3 was coupled to carboxylates on the surface of polystyrene (PS) particles in the presence of EDC and NHS in 200 mM sodium borate buffer pH 7.8 at RT. Propargylglycine-W-(DYD)6-NH2 peptide was coupled with PS-PEG-N3 in the presence of catalytic amount of CuAcAc, TBTA, and excess ascorbic acid in sodium phosphate buffer pH 7, under nitrogen, using click chemistry. Biodegradable CEST nanoparticles based on the polymer of poly(lactic-co-glycolic) acid-co-PEG (PLGA-PEG) were synthesized using a similar procedure and formulated using a oil-in-water emulsion method.
The nanoparticles are suitable for tumor delivery. As the interior of the nanoparticles has reduced water accessibility compared to liposomes, the CEST agent was conjugated to the surface of the particle as shown in FIGS. 5(a) through 5(c). Two versions were prepared, one with a short (0.6 kDa) and a second with a longer PEG spacer (5.6 kDa). […] The DYD peptide provides contrast centered around 2.5 ppm from water, which should allow discrimination with the BA liposomes through multi-color CEST imaging.

In the case of “propargylglycine-W-(DYD)6-NH2 [DYD peptide]”, the “CEST contrast centre, offset from water” value is reported as “around 2.5 ppm”.
